Reference: patent publication US20110033393A1, “Hydrazone Compounds and Their Use” (priority 2009, published 2011)

These compounds were tested against T1, human TRPM5 ion channel (Homo sapiens, UniProt Q9NZQ8) (assay: FLIPR-based assay for membrane potential and calcium mobilization (TRPM5 inhibiting activity)). Settings: live cells, 30° C., read-out: hTrpM5 IC50.
T1 sequence (Q9NZQ8 1-1165): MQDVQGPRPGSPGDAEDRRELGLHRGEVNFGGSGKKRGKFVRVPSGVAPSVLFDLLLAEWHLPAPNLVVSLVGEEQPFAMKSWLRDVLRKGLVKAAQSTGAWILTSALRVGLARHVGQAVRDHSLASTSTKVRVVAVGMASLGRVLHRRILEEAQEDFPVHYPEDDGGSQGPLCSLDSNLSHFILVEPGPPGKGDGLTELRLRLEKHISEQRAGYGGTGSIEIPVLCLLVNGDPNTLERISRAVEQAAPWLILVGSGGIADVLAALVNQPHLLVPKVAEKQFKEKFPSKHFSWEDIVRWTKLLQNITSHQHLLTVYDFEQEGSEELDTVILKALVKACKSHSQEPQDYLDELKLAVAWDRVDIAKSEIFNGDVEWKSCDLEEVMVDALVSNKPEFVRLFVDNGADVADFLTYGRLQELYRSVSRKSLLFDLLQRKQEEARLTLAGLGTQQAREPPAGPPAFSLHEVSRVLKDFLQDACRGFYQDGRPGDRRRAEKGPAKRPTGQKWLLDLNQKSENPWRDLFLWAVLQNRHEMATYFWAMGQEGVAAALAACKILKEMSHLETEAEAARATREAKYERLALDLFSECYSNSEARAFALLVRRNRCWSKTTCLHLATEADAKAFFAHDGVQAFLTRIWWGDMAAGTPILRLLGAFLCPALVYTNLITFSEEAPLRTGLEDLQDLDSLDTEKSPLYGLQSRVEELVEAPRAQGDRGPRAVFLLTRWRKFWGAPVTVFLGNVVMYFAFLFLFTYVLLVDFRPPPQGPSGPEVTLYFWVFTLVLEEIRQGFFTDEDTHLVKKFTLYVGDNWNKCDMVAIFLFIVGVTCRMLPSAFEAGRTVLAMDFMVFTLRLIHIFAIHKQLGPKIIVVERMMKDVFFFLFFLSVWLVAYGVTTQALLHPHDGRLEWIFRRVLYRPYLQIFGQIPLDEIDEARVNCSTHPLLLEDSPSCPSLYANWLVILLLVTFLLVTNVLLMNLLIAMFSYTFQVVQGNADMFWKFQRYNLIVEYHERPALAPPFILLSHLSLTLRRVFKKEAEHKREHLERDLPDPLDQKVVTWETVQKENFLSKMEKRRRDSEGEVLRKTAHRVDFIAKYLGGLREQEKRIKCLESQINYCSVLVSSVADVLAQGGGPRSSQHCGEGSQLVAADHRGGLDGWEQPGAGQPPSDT
Format: cell-based
Experimental: The activity of compounds of the present invention on human TRPM5 ion channel was measured using the FLIPR-based (fluorescent imaging plate reader) assay for membrane potential and calcium mobilization described in U.S. Patent Application Publication No. 2008/0249189 A1 in live cells, wherein the assay is performed at 30° C. Determinations of affinity and efficacy were derived from measurements of TRPM5 activity over a range of compound concentrations. The concentration range was achieved by 10 serial dilutions (either 2-fold or 3-fold decrements) from a maximum concentration of no greater that 100 μM. Curver fitting was performed on the resulting data to yield concentration-effect functions, from which the half-maximal inhibitory concentration (IC50) was derived for all the tested compounds. The IC50 values were considered to be accurate reflections of affinity between the compounds and TRPM5.
Representative compounds of the present invention have been tested in the FLIPR assay for TRPM5 inhibiting activity, which is described in detail above.
`COc1ccc(/C=N/NC(=O)[C@@H]2C[C@H]2c2cccc(C(F)(F)F)c2)cc1OC` (relative stereo) [Example 6, trans-N′-(3,4-Dimethoxybenzylidene)-2-(3-(trifluoromethyl)phenyl)cyclopropanecarbohydrazide] showed an IC50 of 37 nM.
In the case of `COc1cc(/C=N/NC(=O)[C@@H]2C[C@H]2c2ccccc2)cc2cccnc12` (relative stereo) [Example 22, trans-N′-((8-Methoxyquinolin-6-yl)methylene)-2-phenylcyclopropanecarbohydrazide], the IC50 is reported as 90 nM.
`O=C(N/N=C/c1cc(Cl)c2ncccc2c1)[C@@H]1C[C@H]1c1ccccc1` (relative stereo) [Example 25, trans-N′-((8-Chloroquinolin-6-yl)methylene)-2-phenylcyclopropanecarbohydrazide] was tested, and the IC50 was 340 nM.
`O=C(N/N=C/c1cc(Cl)c2ncccc2c1)[C@@H]1C[C@H]1c1cccc(Cl)c1` (relative stereo) [Example 28, trans-2-(3-Chlorophenyl)-N′-((8-chloroquinolin-6-yl)methylene)cyclopropanecarbohydrazide] was tested, and the IC50 was 650 nM.
`Cc1cc(/C=N/NC(=O)[C@@H]2C[C@H]2c2cccc(Cl)c2)cc2cccnc12` (relative stereo) [Example 29, trans-2-(3-Chlorophenyl)-N′-((8-methylquinolin-6-yl)methylene)cyclopropanecarbohydrazide] was tested, and the IC50 was 800 nM.
In the case of `O=C(N/N=C/c1ccc2ncccc2n1)[C@@H]1C[C@H]1c1cccc(Cl)c1` (relative stereo) [Example 31, trans-N′-((1,5-Naphthyridin-2-yl)methylene)-2-(3-chlorophenyl)cyclopropanecarbohydrazide], the IC50 is reported as ~50000 nM.
`COc1ccc(/C=N/NC(=O)[C@@H]2C[C@H]2c2ccc3ccccc3n2)cc1OC` (relative stereo) [Example 36, trans-N′-(3,4-Dimethoxybenzylidene)-2-(quinolin-2-yl)cyclopropanecarbohydrazide] was tested, and the IC50 was 930 nM.
Work on `COc1ccc(/C=N/NC(=O)[C@@H]2C[C@H]2c2cccc(C)n2)cc1OC` (relative stereo) [Example 37, trans-N′-(3,4-Dimethoxybenzylidene)-2-(6-methylpyridin-2-yl)cyclopropanecarbohydrazide] yielded an IC50 of 3200 nM.
For `COc1ccc(C=NNC(=O)[C@@H]2C[C@H]2c2cnc3ccccc3c2)cc1OC` (relative stereo) [Example 38, trans-N′-(3,4-Dimethoxybenzylidene)-2-(quinolin-3-yl)cyclopropanecarbohydrazide], the IC50 was 610 nM.
With `COc1ccc([C@@H]2C[C@H]2C(=O)N/N=C/c2cc(C)c3ncccc3c2)cn1` (relative stereo) [Example 41, trans-2-(6-Methoxypyridin-3-yl)-N′-((8-methylquinolin-6-yl)methylene)cyclopropanecarbohydrazide] the IC50 was 5000 nM.
`COc1cccc([C@@H]2C[C@H]2C(=O)N/N=C/c2cc(C)c3ncccc3c2)n1` (relative stereo) [Example 42, trans-2-(6-Methoxypyridin-2-yl)-N′-((8-methylquinolin-6-yl)methylene)cyclopropanecarbohydrazide] gave an IC50 of 410 nM.
With `Cc1cc(C=NNC(=O)C2CC2c2ccccc2)cc2cccnc12` (single isomer, unassigned) [11 (E1), trans-N′-((8-Methylquinolin-6-yl)methylene)-2-phenylcyclopropanecarbohydrazide, E1 enantiomer] the IC50 was > 10000 nM.
Work on `Cc1cc(C=NNC(=O)C2CC2c2ccccc2)cc2cccnc12` (single isomer, unassigned) [11 (E2), trans-N′-((8-Methylquinolin-6-yl)methylene)-2-phenylcyclopropanecarbohydrazide, E2 enantiomer] yielded an IC50 of 240 nM.
Work on `COc1ccc(/C=N/NC(=O)C(C)Sc2cccc(Cl)c2)cc1OC` (stereo not drawn) [Example 1, 2-(3-Chlorophenylthio)-N′-(3,4-dimethoxybenzylidene)propanehydrazide] yielded an IC50 of 55 nM.
Work on `COc1ccc(/C=N/NC(=O)CCc2cn(C)c3ccccc23)cc1OC` [Example 2, N′-(3,4-dimethoxybenzylidene)-3-(1-methyl-1H-indol-3-yl)propanehydrazide] yielded an IC50 of 51 nM.
For `Cc1cn(CCC(=O)N/N=C/c2cc(C)c3ncccc3c2)c2ccccc12` [Example 3, 3-(3-Methyl-1H-indol-1-yl)-N′-((8-methylquinolin-6-yl)methylene)propanehydrazide], the IC50 was 30 nM.
Compound `COc1cc(/C=N/NC(=O)CCn2cc(C)c3ccccc32)ccc1OCCCO` [Example 4, N′-(4-(3-Hydroxypropoxy)-3-methoxybenzylidene)-3-(3-methyl-1H-indol-1-yl)propanehydrazide] has an IC50 of 500 nM.
Compound `COc1ccc(/C=N/NC(=O)NCCc2ccc(Cl)cc2)cc1OC` [Example 5, N-(4-Chlorophenethyl)-2-(3,4-dimethoxybenzylidene)hydrazinecarboxamide] has an IC50 of 51 nM.
`COc1ccc(/C=N/NC(=O)CCn2cc(C)c3c(C)cccc32)cc1OC` [Example 7, N′-(3,4-Dimethoxybenzylidene)-3-(3,4-dimethyl-1H-indol-1-yl)propanehydrazide] gave an IC50 of 1.8 nM.
Work on `COc1cc(F)c(/C=N/NC(=O)CCn2cc(C)c3c(C)cccc32)cc1OC` [Example 8, 3-(3,4-Dimethyl-1H-indol-1-yl)-N′-(2-fluoro-4,5-dimethoxybenzylidene)propanehydrazide] yielded an IC50 of 3 nM.
`COc1ccc(/C=N/N(C)C(=O)C2CC2c2ccccc2)cc1OC` (stereo not drawn) [Example 9, trans-N′-(3,4-Dimethoxybenzylidene)-N-methyl-2-phenylcyclopropanecarbohydrazide] was tested, and the IC50 was 5000 nM.
`COc1cc(/C=N/NC(=O)CCn2cc(C)c3c(C)cccc32)ccc1OCc1ccccc1` [Example 12, N′-(4-(Benzyloxy)-3-methoxybenzylidene)-3-(3,4-dimethyl-1H-indol-1-yl)propanehydrazide] gave an IC50 of 80 nM.
`COc1cc(/C=N/NC(=O)CCn2cc(C)c3c(C)cccc32)ccc1OCc1ccccn1` [Example 13, 3-(3,4-Dimethyl-1H-indol-1-yl)-N′-(3-methoxy-4-(pyridin-2-ylmethoxy)benzylidene)propanehydrazide] gave an IC50 of 66 nM.
For `COc1ccc(/C=N/NC(=O)CCn2cc(C)c3cccnc32)cc1OC` [Example 14, N′-(3,4-Dimethoxybenzylidene)-3-(3-methyl-1H-pyrrolo[2,3-b]pyridin-1-yl)propanehydrazide], the IC50 was 680 nM.
With `COc1cc(/C=N/NC(=O)CCn2cc(C)c3c(C)cccc32)cc(Cl)c1OC` [Example 15, N′-(3-Chloro-4,5-dimethoxybenzylidene)-3-(3,4-dimethyl-1H-indol-1-yl)propanehydrazide] the IC50 was 38 nM.
Compound `COc1cc(/C=N/NC(=O)CCn2cc(C)c3c(C)cccc32)ccc1OCc1cccnc1` [Example 16, 3-(3,4-Dimethyl-1H-indol-1-yl)-N′-(3-methoxy-4-(pyridin-3-ylmethoxy)benzylidene)propanehydrazide] has an IC50 of 53 nM.
Compound `COc1ccc(/C=N/NC(=O)CCn2cnc3c(C)cccc32)cc1OC` [Example 17, N′-(3,4-Dimethoxybenzylidene)-3-(4-methyl-1H-benzo[d]imidazol-1-yl)propanehydrazide] has an IC50 of 2400 nM.
In the case of `COc1cc(/C=N/NC(=O)CCn2cc(C)c3c(C)cccc32)ccc1OCc1ccncc1` [Example 18, 3-(3,4-Dimethyl-1H-indol-1-yl)-N′-(3-methoxy-4-(pyridin-4-ylmethoxy)benzylidene)propanehydrazide], the IC50 is reported as 46 nM.
In the case of `COc1cc(/C=N/NC(=O)CCn2cc(C)c3c(C)cccc32)ccc1OCc1cccnn1` [Example 19, 3-(3,4-Dimethyl-1H-indol-1-yl)-N′-(3-methoxy-4-(pyridazin-3-ylmethoxy)benzylidene)propanehydrazide], the IC50 is reported as 180 nM.
`COc1cc(/C=N/NC(=O)C2CC2c2ccccc2)ccc1OCc1cccnc1` (stereo not drawn) [Example 20, trans-N′-(3-Methoxy-4-(pyridin-3-ylmethoxy)benzylidene)-2-phenylcyclopropanecarbohydrazide] showed an IC50 of 1600 nM.
